This note sets out measurements from ChEMBL document CHEMBL2429750, “Inhibitors of tick-borne flavivirus reproduction from structure-based virtual screening” (ACS Med Chem Lett, 2013).

The subject of series [1] is Omsk hemorrhagic fever virus. Description: Antiviral activity against Omsk hemorrhagic fever virus Nikitina infected in PEK cells assessed as inhibition of viral plaque formation after 1 hr by gentian violet staining assay. Format: functional, cell-based.
The next series concerns Powassan virus. Description: Antiviral activity against Powassan virus 24 infected in PEK cells assessed as inhibition of viral plaque formation after 1 hr by gentian violet staining assay. It counts as functional, cell-based. The conditions noted are these: for IC50: Powassan virus, 24, PEK.
Series [2] can be described thus: Chronic cytotoxicity against PEK cells after 7 days by neutral red staining assay. Format: cell-based, Sus scrofa. The conditions noted are these: pig.
Series [3] deals with Tick-borne encephalitis virus. In words: Antiviral activity against Tick-borne encephalitis virus Absettarov infected in PEK cells assessed as inhibition of viral plaque formation after 1 hr by gentian violet staining assay. Format: functional, cell-based.
Series [4] is described as follows: Acute cytotoxicity against PEK cells after 24 hrs by neutral red staining assay. It counts as cell-based, Sus scrofa. The conditions noted are these: pig.

`CC1=C(C(=O)Nc2ccc(Cl)cc2)C(c2ccccc2)C(C#N)=C(SCC(=O)Nc2cccc(C)c2)N1` (racemic): the IC50 in series [1] is above 10 µM; with Powassan virus, above 10 µM; in series [3], 2 µM. Moreover, the inhibition entry (in series [1]; with Powassan virus; in series [3]) was “Dose-dependent effect” each time. For the same compound, in series [2], the half-maximal cytotoxic concentration (CC50) at 168 h is 41 µM. Further, the CC50 at 24 h in series [4] is above 250 µM.

`CC1=C(C(=O)Nc2ccccc2)C(c2cccs2)C(C#N)=C(SCC(=O)c2ccccc2)N1` (racemic): the IC50 (in series [1]; with Powassan virus; in series [3]) was above 10 µM in each case. Also, the inhibition result (in series [1]; in the series on Powassan virus; in series [3]) was “Dose-dependent effect” throughout. The CC50 at 168 h in series [2] turned out to be 17 µM. For the same compound, in series [4], the CC50 at 24 h was above 250 µM.

Turning to `COc1ccc(NC(=O)CSC2=C(C#N)C(c3ccccc3F)C(C(=O)Nc3ccccc3C)=C(C)N2)cc1` (racemic), the values for the IC50 (in series [1]; in the series with Powassan virus; in series [3]) were 7.2 µM, above 10 µM and above 10 µM, respectively. Besides, the inhibition result (in series [1]; in the series with Powassan virus; in series [3]) was “Dose-dependent effect” each time. In addition, in series [2], the CC50 at 168 h is 89 µM. Besides, the CC50 at 24 h in series [4] was above 250 µM.

Take `CC1=C(C(=O)Nc2ccccc2C)C(c2ccco2)C(C#N)=C(SCC(=O)Nc2ccc3ccccc3c2)N1` (racemic): the results for the 50% inhibitory concentration (IC50) (in series [1]; in the series on Powassan virus; in series [3]) were 5.3 µM, above 10 µM and above 10 µM, respectively. Further, the inhibition result (in series [1]; in the series on Powassan virus; in series [3]) was “Dose-dependent effect” in each case. The same compound returned a CC50 at 168 h in series [2] above 250 µM. Besides, in series [4], the CC50 at 24 h is above 250 µM.

Regarding `COc1ccc(N2CSC3=C(C#N)C(c4ccc(OCc5ccc(Cl)cc5)cc4)CC(=O)N3C2)c(OC)c1` (racemic), the IC50 in series [1] is above 10 µM; in the series with Powassan virus, 1.3 µM; in series [3], 0.07 µM. For the same compound, the inhibition entry (in series [1]; with Powassan virus; in series [3]) was “Dose-dependent effect” throughout. The compound also yielded a CC50 at 168 h in series [2] of 39 µM. Besides, the midpoint of cytotoxicity in series [4], the CC50 at 24 h, lay at 109 µM.

As to `CCc1ccc(NC(=O)CSC2=C(C#N)C(c3ccco3)C(C(=O)Nc3ccc(Cl)cc3)=C(C)N2)cc1` (racemic), the IC50 (in series [1]; in the series on Powassan virus; in series [3]) was above 10 µM throughout. In addition, the inhibition entry (in series [1]; in the series on Powassan virus; in series [3]) was “Dose-dependent effect” in each case. The midpoint of cytotoxicity in series [2], the CC50 at 168 h, lay at 27 µM. Besides, the CC50 at 24 h in series [4] was 26 µM.

On to `CC1=C(C(=O)Nc2nc3ccccc3s2)C(c2ccco2)C(C#N)=C(SCC(=O)Nc2nc3ccccc3s2)N1` (racemic), for which the IC50 in series [1] is 2.5 µM; in the series with Powassan virus it was above 10 µM; in series [3], above 10 µM. The inhibition result (in series [1]; in the series with Powassan virus; in series [3]) was “Dose-dependent effect” each time. Further, the midpoint of cytotoxicity in series [2], the CC50 at 168 h, lay at 52 µM. In addition, in series [4], the CC50 at 24 h was above 250 µM.

For `CC1=C(C(=O)Nc2nc3ccccc3s2)C(c2ccco2)C(C#N)=C(SCC(=O)Nc2ccc(C(C)C)cc2)N1` (racemic), the IC50 was 2.5 µM in series [1], above 10 µM in the series on Powassan virus and above 10 µM in series [3]. Besides, the inhibition entry (in series [1]; in the series with Powassan virus; in series [3]) was “Dose-dependent effect” throughout. In series [2], the CC50 at 168 h was found to be 29 µM. For the same compound, the cytotoxic concentration (CC50) at 24 h in series [4] was above 250 µM.

`CCOc1ccccc1N1CSC2=C(C#N)C(c3cccc(OCc4ccccc4)c3)CC(=O)N2C1` (racemic): the IC50 in series [1] is above 10 µM; in the series with Powassan virus, 2.2 µM; in series [3], 2.6 µM. Besides, the inhibition result (in series [1]; in the series with Powassan virus; in series [3]) was “Dose-dependent effect” in each case. In series [2], this compound yielded a CC50 at 168 h of 116 µM. In series [4], this compound displayed a CC50 at 24 h above 250 µM.

On to `COc1ccc(N2CSC3=C(C#N)C(c4ccc(OCc5ccccc5)c(OC)c4)CC(=O)N3C2)cc1` (racemic), for which the IC50 was above 10 µM in series [1], above 10 µM with Powassan virus and 0.09 µM in series [3]. The inhibition result (in series [1]; in the series with Powassan virus; in series [3]) was “Dose-dependent effect” throughout. The same compound had a CC50 at 168 h in series [2] of 53 µM. The same compound gave a CC50 at 24 h in series [4] above 250 µM.

As for `CCc1ccc(NC(=O)CSC2=C(C#N)C(c3ccco3)C(C(=O)Nc3ccc(S(N)(=O)=O)cc3)=C(C)N2)cc1` (racemic), the IC50 in series [1] was 10 µM; in the series with Powassan virus it was above 10 µM; in series [3], above 10 µM. The inhibition result (in series [1]; with Powassan virus; in series [3]) was “Dose-dependent effect” in each case. This compound also registered a cytotoxic concentration (CC50) at 168 h in series [2] of 153 µM. Also, in series [4], the CC50 at 24 h was above 250 µM.

Turning to `CC1=C(C(=O)Nc2ccccc2)C(c2ccco2)C(C#N)=C(SCC(=O)Nc2ccc(C)c(C)c2)N1` (racemic), the IC50 in series [1] is 3.2 µM; with Powassan virus it was above 10 µM; in series [3] it was above 10 µM. Also, the inhibition entry (in series [1]; in the series with Powassan virus; in series [3]) was “Dose-dependent effect” each time. Further, in series [2], the CC50 at 168 h was determined as 19 µM. This compound showed a CC50 at 24 h in series [4] above 250 µM.

As for `CC1=C(C(=O)Nc2ccc(Cl)cc2)C(c2ccccc2)C(C#N)=C(SCC(=O)Nc2ccc(Oc3ccccc3)cc2)N1` (racemic), the results for the IC50 (in series [1]; in the series with Powassan virus; in series [3]) were above 10 µM, above 10 µM and 2.8 µM, respectively. Also, the inhibition entry (in series [1]; with Powassan virus; in series [3]) was “Dose-dependent effect” each time. In series [2], this compound gave a CC50 at 168 h of 38 µM. For the same compound, the CC50 at 24 h in series [4] was above 250 µM.

With `CCc1ccc(N2CSC3=C(C#N)C(c4cccc(OCc5ccccc5)c4)CC(=O)N3C2)cc1` (racemic), the IC50 in series [1] is above 11.9 µM; with Powassan virus, above 10 µM; in series [3], above 10 µM. The inhibition result (in series [1]; in the series with Powassan virus; in series [3]) was “Dose-dependent effect” in each case. Besides, the CC50 at 168 h in series [2] was 236 µM. In series [4], this compound came in with a CC50 at 24 h above 250 µM.

As to `CC1=C(C(=O)Nc2ccc(Cl)cc2)C(c2ccccc2)C(C#N)=C(SCC(=O)Nc2ccc3ccccc3c2)N1` (racemic), the half-maximal inhibitory concentration (IC50) (in series [1]; with Powassan virus; in series [3]) was above 10 µM each time. The inhibition entry (in series [1]; in the series on Powassan virus; in series [3]) was “Dose-dependent effect” throughout. The midpoint of cytotoxicity in series [2], the CC50 at 168 h, lay at 20 µM. The cytotoxic concentration (CC50) at 24 h in series [4] turned out to be 111 µM.

As for `COc1ccccc1NC(=O)C1=C(C)NC(SCC(=O)Nc2ccc(C)cc2)=C(C#N)C1c1cccs1` (racemic), the IC50 in series [1] is 5.5 µM; in the series with Powassan virus, above 10 µM; in series [3], above 10 µM. For the same compound, the inhibition result (in series [1]; in the series with Powassan virus; in series [3]) was “Dose-dependent effect” each time. The same compound gave a CC50 at 168 h in series [2] of 97 µM. Moreover, the 50% cytotoxic concentration (CC50) at 24 h in series [4] is above 250 µM.

For `CCc1ccc(NC(=O)CSC2=C(C#N)C(c3ccc(O)c(OC)c3)C(C(=O)Nc3ccccc3)=C(C)N2)cc1` (racemic), the IC50 was 1.8 µM in series [1], above 10 µM in the series on Powassan virus and above 10 µM in series [3]. Besides, the inhibition result (in series [1]; with Powassan virus; in series [3]) was “Dose-dependent effect” in each case. In series [2], this compound showed a half-maximal cytotoxic concentration (CC50) at 168 h of 31 µM. The 50% cytotoxic concentration (CC50) at 24 h in series [4] was determined as 114 µM.

On to `CCCCc1ccc(NC(=O)CSC2=C(C#N)C(c3ccco3)C(C(=O)Nc3ccc(OCC)cc3)=C(C)N2)cc1` (racemic), for which the results for the IC50 (in series [1]; in the series with Powassan virus; in series [3]) were above 10 µM, above 10 µM and 2.5 µM, respectively. Besides, the inhibition result (in series [1]; in the series on Powassan virus; in series [3]) was “Dose-dependent effect” throughout. The compound further yielded a CC50 at 168 h in series [2] of 14 µM. In series [4], the CC50 at 24 h was 64 µM.

For the compound `COc1ccccc1NC(=O)C1=C(C)NC(SCC(=O)Nc2ccc(Br)cc2)=C(C#N)C1c1ccc(C)o1` (racemic), the IC50 in series [1] is 3.7 µM; in the series on Powassan virus it was above 10 µM; in series [3], above 10 µM. The inhibition entry (in series [1]; with Powassan virus; in series [3]) was “Dose-dependent effect” throughout. The same compound registered a CC50 at 168 h in series [2] of 34 µM. Also, in series [4], the CC50 at 24 h was 248 µM.

In the case of `CCCCc1ccc(N2CSC3=C(C#N)C(c4ccc(OCc5ccccc5)cc4)CC(=O)N3C2)cc1` (racemic), the IC50 in series [1] was above 10 µM; in the series on Powassan virus it was above 10 µM; in series [3], 1.9 µM. Moreover, the inhibition result (in series [1]; with Powassan virus; in series [3]) was “Dose-dependent effect” each time. Moreover, in series [2], the CC50 at 168 h stood at 35 µM. In series [4], this compound returned a CC50 at 24 h above 250 µM.
